Test results reported in patent US20100055691A1, “SCREENING METHOD FOR THERAPEUTIC AGENT FOR AMYOTROPHIC LATERAL SCLEROSIS” (HISAMITSU PHARMACEUTICAL CO.,IN., priority 2006, published 2010).

Key:
Type in all cases: cell-based
Tollip = assay: cell fractionation and western blotting of the intracellular localization of Tollip; settings: HEK293 cells transfected with Tollip-Myc-pcDNA3, 100 ng/mL TNF-α up to 48 h
Procedure: Firstly, the intracellular localization of alsin and Tollip was examined by cell fractionation and with western blotting. To be more specific, HEK293 cells were transfected with ALS2CR6-FLAG-pIRESpuro2 or Tollip-Myc-pcDNA3 and 24 h later, the cells were lysed and fractionated by a standard method. After that, western blotting (WB) was carried out. In the WB, lamin, which is localized in the cell nucleus only, and tubulin, which is localized in the cytoplasm only, were used as controls; mouse anti-lamin B (101-B7) NA12 (CALBIOCHEM) or mouse anti-tubulin (Ab-2) (clone DM1A) (LABVISION/NEOMARKERS) were used as primary antibodies, and goat anti-mouse SC-2005 (Santa Cruz) was used as the secondary antibody.
Next, with HEK293 cells transfected with Tollip-Myc-pcDNA3, we examined how the intracellular localization of Tollip changed by TNF-α treatment. Treatment with 100 ng/mL of TNF-α was given up to 48 h and changes in localization of Tollip were checked at different time points.

[1] = tested on: NFκB activity in HEK293 cells; assay: luciferase assay of induction of NFκB activity by TNF-α
Procedure: Firstly, for establishing the experiment system, we screened various treatment times and doses of TNF-α to determine the optimum conditions for induction of NFκB activity by TNF-α. The luciferase assay was used for the screening. To be more specific, firstly, the NFκB gene was introduced upstream of LUC into pELAM1-Luc, which is a luciferase (LUC) reporter vector, and a vector for expressing NFκB/LUC fusion protein was prepared. Next, HEK293 cells were transfected with this expression vector. 24 h after the transfection, the cells were treated with 10 ng/mL of TNF-α for 1, 2, 4, 8, or 24 h. After that, the luciferase assay was carried out by a standard method, and the level of transcription of the NFκB, which was the target gene, was examined. FIG. 9 (A) confirms that highest NFκB activity was induced 1 h after the treatment with TNF-α.
The level of transcription of NFκB was measured using different concentrations of TNF-α: 10, 100, and 1000 ng/mL, keeping the treatment time constant at 1 h. FIG. 9 (B) confirms that the highest NFκB activity was induced with 100 ng/mL.

[2] = tested on: Tollip and IRAK-1 complex; assay: immunoprecipitation of the interaction between Tollip and IRAK-1; settings: HEK293 cells transfected with Tollip-Myc-pcDNA3, 100 ng/mL TNF-α for 1 h
Procedure: There has been a report that Tollip binds to IRAK-1 in IL-1R/TLR signaling. We examined whether this happened in TNF-α signaling also. The experiment was carried out by the immunoprecipitation method, which can verify binding of proteins. HEK293 cells were transfected with Tollip-Myc-pcDNA3. Then, after 24 h, some of the cells were treated for 1 h with 100 ng/mL of TNF-α while others were not treated. After that, the cells were lysed and immunoprecipitation […] was carried out. For the immunoprecipitation, Chrom PumPure mouse IgG (Jackson Immunoresearch) was used as the control, mouse anti-IRAK-1(F-4)SC-5288 (Santa Cruz) and mouse anti-Myc(9B11)#2276 (Santa Cruz) were used as primary antibodies, and goat anti-mouse SC-2005 (Santa Cruz) was used as the secondary antibody.

[3] = tested on: NFκB protein in HEK293 cells; assay: western blotting of NFκB protein in cell nucleus and cytoplasm; settings: 100 ng/mL TNF-α for 1, 2, 4, 8 or 24 h
Procedure: Furthermore, the expression level of the NFκB protein in the cell nucleus and the cytoplasm of HEK293 cells treated with 100 ng/mL of TNF-α for 1, 2, 4, 8, or 24 h was examined using western blotting (WB). For this WB, rabbit anti-NFκB p65(C-20) SC-372 (Santa Cruz) was used as the primary antibody and goat anti-rabbit SC-2004 (Santa Cruz) as the secondary antibody.

## TNF-α
Tollip
  expression of Tollip: decreased the expression of Tollip
  intracellular localization of Tollip: made Tollip to migrate to the cell nucleus
[1]; HEK293 cells, 10 ng/mL TNF-α for 1, 2, 4, 8 or 24 h
  treatment time at which highest NFκB activity was induced: 1 h
[1]; HEK293 cells, 10, 100 and 1000 ng/mL, treatment time 1 h
  concentration at which highest NFκB activity was induced: 100 ng/mL
[2]
  binding of Tollip and IRAK-1: suppressed
[3]
  time of highest level of NFκB protein in the cell nucleus: 1 h
